# In US8198323B2, “Curcumin analogues and uses thereof” (The University of North Carolina at Chapel Hill, priority 2004, dated 2012):
# Positions count from the first letter of the chain named. Entries after “also recorded” stand apart in the source; their conditions may differ.
# Experiments:
# Assay type in all cases: cell-based
# [1] = target: T1, mutant AR in LNCaP cells (Homo sapiens, UniProt P10275, T878A); experiment: LNCaP AR transactivation assay / LNCaP cell growth assay (Table 2); conditions: 1 nM DHT, symbols 0, +, ++ not defined
# T1 construct: LNCaP cells, which express a clinically relevant mutant AR; endogenous in cells; host or cells: LNCaP
# T1 sequence (P10275 1-920 T878A): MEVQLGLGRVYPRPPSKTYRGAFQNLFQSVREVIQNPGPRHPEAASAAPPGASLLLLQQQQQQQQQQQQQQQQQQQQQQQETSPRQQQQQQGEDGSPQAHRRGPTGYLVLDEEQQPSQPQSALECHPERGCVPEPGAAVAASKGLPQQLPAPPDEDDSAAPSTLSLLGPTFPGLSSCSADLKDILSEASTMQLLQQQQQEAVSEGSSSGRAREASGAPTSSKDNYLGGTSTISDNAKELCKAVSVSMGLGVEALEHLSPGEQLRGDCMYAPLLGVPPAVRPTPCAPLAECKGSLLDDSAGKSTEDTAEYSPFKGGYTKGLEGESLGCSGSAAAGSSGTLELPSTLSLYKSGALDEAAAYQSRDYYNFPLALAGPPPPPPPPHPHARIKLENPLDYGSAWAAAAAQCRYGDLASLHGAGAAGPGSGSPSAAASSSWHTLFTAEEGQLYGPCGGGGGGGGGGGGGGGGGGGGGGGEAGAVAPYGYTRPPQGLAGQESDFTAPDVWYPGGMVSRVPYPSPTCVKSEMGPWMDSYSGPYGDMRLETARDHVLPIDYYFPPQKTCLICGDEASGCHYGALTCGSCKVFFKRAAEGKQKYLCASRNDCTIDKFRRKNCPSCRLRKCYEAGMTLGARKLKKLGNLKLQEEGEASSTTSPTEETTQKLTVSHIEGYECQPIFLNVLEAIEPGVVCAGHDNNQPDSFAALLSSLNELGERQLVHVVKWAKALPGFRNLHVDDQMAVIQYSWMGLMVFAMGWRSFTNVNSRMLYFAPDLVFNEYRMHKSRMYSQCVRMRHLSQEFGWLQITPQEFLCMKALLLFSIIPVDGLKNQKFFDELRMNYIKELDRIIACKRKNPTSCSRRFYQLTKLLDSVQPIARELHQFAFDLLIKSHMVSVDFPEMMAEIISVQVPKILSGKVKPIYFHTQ
# Procedure: (§1) Cell culture and transfection—Human prostate cancer LNCaP and PC-3 cells were maintained in RPMI medium and Dulbecco's minimum essential medium (DMEM), respectively. Both media were strengthened with penicillin (25 units/mL), streptomycin (25 μg/mL), and 10% fetal calf serum. Androgen receptor transactivation assay, an androgen-dependent reporter gene transcription test, was employed as the primary screening for potential antiandrogen identification. This assay was first performed in LNCaP cells, which express a clinically relevant mutant AR. Once potential compounds were indicated by LNCaP AR transactivation assay, they were re-examined for their potential activity against wild type AR. Wild type AR transactivation assay was performed in PC-3 host cells, which lack an endogenous, functional AR.
# (§2) Our previously described conditions for cell transfection were followed (Ohtsu et al, J Medicinal Chem 45: 5037-5042 (2002); Ohtsu et al., Bioorganic & Medicinal Chemistry 11:5083-5090 (2003)). In brief, cells were plated in 24- or 48-well tissue culture dishes twenty-four (PC-3 cells) or forty-eight (LNCaP cells) hours prior to transfection. Subsequently, LNCaP cells were transfected with a reporter gene, MMTV-luciferase, which contains MMTV-LTR promoter and androgen receptor binding element, and PRL-SV40, which served as an internal control for transfection efficiency. PC-3 cells were transfected with a wild type AR expression plasmid, pSG5AR, in addition to the above-mentioned MMTV-luciferase reporter gene and PRL-SV40 internal control. SuperFect (Qiagen, Chatsworth, Calif.) was employed as the transfection reagent following manufacturer's recommendations. At the end of a five-hour transfection, the medium was changed to DMEM or RPMI supplemented with 10% charcoal dextran-stripped, androgen-depleted serum. Twenty-four hours later, the cells were treated with 1 nM of DHT and/or test compounds at the designated concentration for another twenty-four hours. The cells were harvested for luciferase activity assay using Dual Luciferase Assay System (Promega, Madison, Wis.). The derived data were expressed as relative luciferase activity normalized to the internal luciferase control. DHT incubation induced a marked expression of reporter gene.
# LNCaP cell growth assay thus was used as an alternative to confirm potential antiandrogens identified by the above-mentioned AR transactivation assay. An MTT analysis, relying upon the conversion of a colorless substrate to reduced tetrazolium by the mitochondrial dehydrogenase, was used. The experimental conditions were detailed elsewhere (Ohtsu et al., Bioorganic & Medicinal Chemistry 11:5083-5090 (2003)). Briefly, cells were plated in 96-well tissue culture plates and then incubated for 5 consecutive days in the presence of 1 nM of DHT and/or test compounds in 10% charcoal dextran-stripped serum-containing RPMI. At the end of incubation, the cells were given MTT (5 mg/ml in PBS) for three hours at 37° C. The resultant precipitate was dissolved in a lysis buffer and then quantitated at a wavelength of 595 nm using a microplate reader. To ensure the accuracy of data derived from the MTT analysis, cell count was performed using duplicate samples.
# [2] = target: T2, wild type AR (Homo sapiens, UniProt P10275); experiment: Wild type AR transactivation assay in PC-3 host cells (Table 2); parameters: expressed in transfected cells; host or cells: PC-3; conditions: PC-3 cells transfected with wild type AR, 1 nM DHT; symbols 0, +, ++ not defined
# T2 sequence (P10275 1-920): T1 sequence (P10275 1-920 T878A) with A878T
# Procedure: as §1, §2
# [3] = target: T3, mutant LNCaP AR (Homo sapiens, UniProt P10275, T878A); experiment: AR transactivation assay (MMTV-luciferase), DU-145 cells transfected with mutant LNCaP AR and ARA70; conditions: FIG. 3B
# T3 construct: expressed in transfected cells; host or cells: DU-145
# T3 sequence (P10275 1-920 T878A): T1 sequence (P10275 1-920 T878A)
# Procedure: (§3) Cell Culture and Transfections. Human prostate cancer DU145 and PC-3 cells were maintained in Dulbecco's minimum essential medium (DMEM) containing penicillin (25 units/mL), streptomycin (25 μg/mL), and 10% fetal calf serum (FCS). For AR transactivation assay, PC-3 cells were transfected with an AR expression plasmid and reporter gene. Because of a low content of endogenous AR coactivators, DU-145 cells were transfected with expression plasmids for AR and ARA70, and reporter gene. The conditions were followed as previously described in Miyamoto et al., Proc. Natl. Acad. Sci. USA, 95, 7379-7384 (1998), with minor modifications.
# (§4) Transfections were performed using the SuperFect kit according to manufacturer's procedures (Qiagen, Chatsworth, Calif.). Briefly, 1×10^5 cells were plated on 35-mm dishes 24 h before transfection, and then a reporter plasmid, MMTV-Luciferase, which contains MMTV-LTR promoter and AR-binding element, was co-transfected with an AR expression plasmid (wild type or mutant), or pSG5ARA70. PRL-TK was used as an internal control for transfection efficiency. The total amount of DNA was adjusted to […] with pSG5 in all transcriptional activation assays. After a 2 h transfection, the medium was changed to DMEM-10% charcoal stripped serum medium, and 14-16 h later, the cells were treated with DHT, antiandrogen, or test compounds. After another 14-16 h, the cells were harvested and tested for luciferase activity in luciferase assays (Promega, Dual Luciferase Assay System, Madison, Wis.). Data were expressed in relative luciferase activity as compared to an internal luciferase positive control.
# [4] = target: T2, wild type AR; experiment: AR transactivation assay (MMTV-luciferase), PC-3 cells transfected with wild-type AR; parameters: expressed in transfected cells; host or cells: PC-3; conditions: PC-3 cell assay system; FIG. 3A
# Procedure: as §3, with “gene.” for “gene. The conditions were followed as previously described in Miyamoto et al., Proc. Natl. Acad. Sci. USA, 95, 7379-7384 (1998), with minor modifications.”
# as §4, with “Data were expressed in relative luciferase activity as compared to an internal luciferase positive control.” left out
# [5] = target: T2, wild type AR; experiment: AR transactivation assay (MMTV-luciferase), DU-145 cells transfected with wild-type AR and ARA70; parameters: expressed in transfected cells; host or cells: DU-145; conditions: FIG. 3C; for antiandrogen activity (in words): DU-145 cells, wild-type AR and ARA70; for reduction (antiandrogen activity): DU-145 cells transfected with wild-type AR and ARA70
# Procedure: as §3, with “gene.” for “gene. The conditions were followed as previously described in Miyamoto et al., Proc. Natl. Acad. Sci. USA, 95, 7379-7384 (1998), with minor modifications.”
# as §4
smiles,measurement,setting,value
COc1cc(/C=C/C(O)=C/C(=O)/C=C/c2ccc(O)cc2)ccc1O [LL-18],"anti-AR activity, LNCaP",[1],0
COc1ccc(/C=C/C(=O)C(C)(F)C(=O)/C=C/c2ccc(OC)c(OC)c2)cc1OC [LL-62],"anti-AR activity, wrAR/PC3",[2],0
O=C(/C=C(O)/C=C/c1ccc(O)o1)/C=C/c1ccc(O)o1 [LL-7],"anti-AR activity, wrAR/PC3",[2],0
"COc1cc(C=CC(=O)CC(=O)C=Cc2ccc(OC)c(OC)c2)ccc1O [Compound 9, Monomethylcurcumin]",antagonistic activity against the AR (in words),[3],significantly less active than 4
"COc1ccc(C(=O)CC(=O)c2ccc(OC)c(OC)c2)cc1OC [Compound 39, 1,3-bis(3,4-dimethoxyphenyl)-1,3-propandione]",antagonistic activity against the AR (in words),[4],less active than 4
same,antagonistic activity against the AR (in words),[3],less active than 4
same,antiandrogen activity (in words),[5],comparable or more potent antiandrogen activity than HF
COc1ccc(/C=C/C(=O)CC(O)/C=C/c2ccc(OC)c(OC)c2)cc1OC (centres unmarked) [LL-55],"anti-AR activity, wrAR/PC3",[2],0
COc1ccc(/C=C/C(=O)/C=C(O)/C=C/c2ccc(OC)cc2F)c(F)c1 [HOJ-9],"anti-AR activity, LNCaP",[1],0
COc1cc(/C=C/C(=O)/C=C/c2ccc(O)c(OC)c2)ccc1O [LL-10],"anti-AR activity, wrAR/PC3",[2],0
CCOC(=O)/C=C/C(C(=O)/C=C/c1ccc(O)c(OC)c1)=C(O)\C=C\c1ccc(O)c(OC)c1 [LL-66],"anti-AR activity, wrAR/PC3",[2],0
COC(=O)COc1ccc(C=CC(=O)CC(=O)C=Cc2ccc(OCC(=O)OC)c(OC)c2)cc1OC [Compound 20],reduction (antiandrogen activity),[5],54%
same,antiandrogen activity (in words),[5],comparable or more potent antiandrogen activity than HF
COc1ccc(/C=C/C(=O)/C=C(O)/C=C/c2ccc(OC)c(OC)c2OC)cc1OC [LL-35],"anti-AR activity, LNCaP",[1],0
COc1cc(/C=C/C(O)=C/C(=O)/C=C/c2ccc(OC)c(OC)c2)ccc1O [LL-17],"anti-AR activity, LNCaP",[1],0
"COc1cc(/C=C/C(=O)/C=C(O)/C=C/c2ccc(O)c(OC)c2)ccc1O [Compound 1, Curcumin]",antagonistic activity against the AR (in words),[4],inactive
same,antagonistic activity against the AR (in words),[3],inactive
same,antiandrogen activity (in words),[5],inactive; also recorded: not active
COc1ccc(/C=C/C(=O)/C=C(O)/C=C/c2ccc(OC)c(OC)c2OC)c(OC)c1OC [LL-32B],"anti-AR activity, LNCaP",[1],0
COc1ccc(/C=C/C(=O)/C=C(O)/C=C/c2ccc(OC)c(O)c2)cc1O [LL-27B],"anti-AR activity, LNCaP",[1],0
CCOC(=O)CCC(C(=O)C=Cc1ccc(O)c(OC)c1)C(=O)C=Cc1ccc(O)c(OC)c1 (centres unmarked) [Compound 22],reduction (antiandrogen activity),[5],53.8%
same,antiandrogen activity (in words),[5],comparable or more potent antiandrogen activity than HF
COc1cc(OC)c(OC)cc1/C=C/C(O)=C/C(=O)/C=C/c1ccc(OC)c(OC)c1 [LL-36],"anti-AR activity, LNCaP",[1],0
